Measurements published in paper PMC7461568, “Novel Cyclic Lipopeptide Antibiotics: Effects of Acyl Chain Length and Position” (International Journal of Molecular Sciences, 2020).
Converted amounts (≈) assume the structure as drawn. Where two headings read alike, the source gives them in different places. Where a SMILES comes first, the peptide text is derived from it. Bridges are numbered along the chain shown (N, C = ends). [ ]: non-standard residue; d: D form. The star is where a group is joined. Bip = N[C@@H](Cc1ccc(-c2ccccc2)cc1)C(=O)O; 2Nal = N[C@@H](Cc1ccc2ccccc2c1)C(=O)O; X1 = CC[C@H](C)CCCCC(=O)*; Dab = NCC[C@H](N)C(=O)O; Hexanoyl = CCCCCC(=O)*; AEEA = NCCOCCOCC(=O)O; Butyryl = CCCC(=O)*

What was measured:
E. coli ATCC 25922 = format: cell-based, Escherichia coli; conditions: MHB-II, inoculum 5 × 10^5 CFU/mL, 37 °C, 18–24 h, visual read-out, triplicate
Protocol: (§1) In the original report on S3(B), MIC experiments were carried out by using non-cation-adjusted MHB-I media. To this, bovine serum albumin (BSA) and acetic acid were added. The rationale for choosing a medium without cations is that cation-adjusted media (MHB-II) in some cases causes substantial inhibition of the activity of cationic peptides. Furthermore, some peptides are at risk of precipitation when diluted into MHB medium, which can be avoided via the addition of BSA and acetic acid. However, the use of MHB-II is favorable to imitate the in vivo conditions as much as possible. Both media were tested with and without the addition of BSA and acetic acid by trial and error. The use of pure MHB-II was compatible with S3(B) and its fatty acid analogues, and therefore was chosen for the MIC determinations. Noticeably, MHB-I with BSA and acetic acid led to precipitation of lipopeptides in the present work.
(§2) Cation-adjusted Mueller-Hinton broth (MHB-II) media (BD BBLTM Beef extract powder, BD BactoTMCasamino acids, and DIFCO soluble starch was from Becton, Dickinson and Company©, Franklin Lakes, NJ, USA). MHB media supplemented with 0.2% BSA was from Sigma Aldrich (St. Louis, MO, USA) and 0.01% acetic acid from VWR®. The 96 well plate cell-culture cluster, round-bottom, polypropylene plates, and V-shaped 96 well polypropylene plates were purchased from Corning® Inc., Costar®, Corning, NY, USA. Microseal® film was obtained from Bio-Rad Laboratories, Inc., Hercules, CA, USA. A VersaMaxTM Tunable Microplate Reader (Molecular Devices LLC, Sunnyvale, CA, USA) was used and the data were evaluated on a Softmax® Pro (Molecular Devices LLC).
(§3) The MIC experiments were performed according to a protocol adapted from Wiegand et al., with minor modifications. The MICs were determined in triplicate. The peptides were dissolved in Milli-Q water to produce 10 mg/mL stock solutions in small glass containers. The bacterial isolates to be tested were streaked onto agar plates to obtain single colonies, and the plates were incubated at 37 °C for 18–24 h. The strains tested were S. aureus ATCC 29213, P. aeruginosa ATCC 27853, E. coli ATCC 25922, A. baumannii ATCC 19606, and K. pneumonia ATCC 13883. Test compounds were prepared in 2-fold dilutions in 50 μL volumes in polypropylene microtiter plates. Bacterial cultures grown to OD600 = 0.1–0.4 were diluted to a desired OD600 of 0.001–0.002 corresponding to 1 × 10^6 CFU/mL. Next, 50 μL bacterial suspension was added to the microtiter plates, giving a final bacterial inoculum of 5 × 10^5 CFU/mL per well. The plates were incubated at 37 °C for 18–24 h. […] The MIC values were visually evaluated, and the MIC was set to the lowest concentration […] based on triplicate measurements. […]

K. pneumonia ATCC 13883 = format: cell-based, Klebsiella pneumoniae; conditions: K. pneumoniae ATCC 13883; MHB-II, inoculum 5 × 10^5 CFU/mL, 37 °C, 18–24 h, visual read-out, triplicate
Protocol: as §1, §2, §3

human erythrocytes = assay: Hemolysis of red blood cells; conditions: 1 h; for %H, percent hemolytic activity against red blood cells at 150 μM: human erythrocytes, 0.5% v/v RBC suspension in PBS, peptide 150 μM, 37 °C, absorbance 414 nm, melittin positive control, triplicate
Protocol: The hemolysis experiments were performed according to the protocol described in Reference. The peptides were tested at concentrations from 2.35–150 μM, using melittin as positive control and PBS as negative control. One premade tablet of PBS was dissolved in 200 mL Milli-Q water. The solution was kept in the refrigerator for a maximum of two days. The day before the test, the positive control wells of the 96 well polypropylene plates were precoated with 150 μL of melittin 5 μM solution in PBS. The solution was prepared in Protein LoBind Eppendorf tubes. The day of the test, the solution was discarded and the wells were washed three times with 150 μL PBS. A melittin 2.50 μM solution in PBS was prepared in Protein LoBind Eppendorf tubes—500 μL for every plate to be used. The mass of the peptide needed to reach a final concentration of 300 μM (to start testing down from 150 μM) was calculated, since a volume of 500 μL was desirable. […] The peptides were dissolved in PBS and tested in triplicate.
In a 96 well polypropylene plate, 150 μL of peptide solution was transferred to three wells in Row A. Therefore, each plate could accommodate up to four peptides. A 2-fold serial dilution of the peptides was obtained by transferring 75 μL of the solutions from Row A to the corresponding wells in Row B, mixing a couple of times. From Row B, 75 μL was transferred to Row C and so on until Row G, where 75 μL was discarded after mixing. Volumes of 75 μL melittin (2.50 μM) was transferred to the positive control wells in H1–H6. Preparation of the RBC suspension: 1 mL of whole blood was transferred to a cryotube with 3 mL of PBS, and then it was gently mixed and centrifuged for 8 min at 3000 rpm. The supernatant was discarded, and the process was repeated twice; with 4 mL at 3000 rpm and 4 mL at 4000 rpm, respectively. From the final RBC pellet, 40 μL was transferred to 8 mL of PBS (multiplied by the number of test plates needed). This corresponded to a 0.5% v/v RBC suspension. The suspension was gently mixed and transferred into a CAPPOrigami reservoir. Using a multichannel pipette, 75 μL of the suspension was transferred into each well and mixed in the direction of increasing concentration. The control wells were mixed separately. The plates were covered with BioradMicroseal foil and incubated at 37 °C for 1 h. The plates (maximum two) were centrifuged for 10 min at 4000 rpm, followed by transferring of supernatant (60 μL) from each well into the corresponding wells in a clear ELISA plate. The absorbance (A) of each well was measured at λ = 414 nm using the software program Softmax(R) Pro.

[1] = Hydrophobicity by analytical RP-HPLC (%B at peak elution); format: physicochemical; conditions: chromatographic, percentage of mobile phase B at the peak elution time
Text: To investigate the effect of attaching fatty acids to a macrocycle, fatty acid tails of different lengths were used. When the carbon chain was elongated, the hydrophobicity of the peptide was increased gradually. Herein, the hydrophobicity is expressed as the percentage of mobile phase B at the peak elution time on an RP-HPLC system.

A. baumannii ATCC 19606 = format: cell-based, Acinetobacter baumannii; conditions: MHB-II, inoculum 5 × 10^5 CFU/mL, 37 °C, 18–24 h, visual read-out, triplicate
Protocol: as §1, with “The use of pure MHB-II was compatible with S3(B) and its fatty acid analogues, and therefore was chosen for the MIC determinations. Noticeably, MHB-I with BSA and acetic acid led to precipitation of lipopeptides in the present work.” left out
(§4) Cation-adjusted Mueller-Hinton broth (MHB-II) media (BD BBLTM Beef extract powder, BD BactoTMCasamino acids, and DIFCO soluble starch was from Becton, Dickinson and Company©, Franklin Lakes, NJ, USA). […] A VersaMaxTM Tunable Microplate Reader (Molecular Devices LLC, Sunnyvale, CA, USA) was used and the data were evaluated on a Softmax® Pro (Molecular Devices LLC).
(§5) The MIC experiments were performed according to a protocol adapted from Wiegand et al., with minor modifications. The MICs were determined in triplicate. […] The MIC values were visually evaluated, and the MIC was set to the lowest concentration […] based on triplicate measurements. […]

P. aeruginosa ATCC 27853 [2] = format: cell-based, Pseudomonas aeruginosa; conditions: MHB-II, inoculum 5 × 10^5 CFU/mL, 37 °C, 18–24 h, visual read-out, triplicate
Protocol: as §1, with “The use of pure MHB-II was compatible with S3(B) and its fatty acid analogues, and therefore was chosen for the MIC determinations. Noticeably, MHB-I with BSA and acetic acid led to precipitation of lipopeptides in the present work.” left out
as §4, §5

P. aeruginosa ATCC 27853 [3] = conditions: for log reduction of cell count within first hour of treatment: 1 h, MHB-II, 37 °C, shaking, n = 3
Protocol: The MIC constitutes a limited measure for antimicrobial activity. It indicates whether or not AMPs in different concentrations are able to prevent visible growth of bacteria.
Time-kill experiments were performed on balanced exponentially growing cultures of P. aeruginosa ATCC 27853. We used balanced cultures as described in Oddo et al.. Briefly, overnight cultures were prepared in MHB-II broth at 37 °C with shaking. Overnight cultures were back-diluted and grown exponentially for no less than 8–10 generations before experimentation. When experiments were done, exponentially growing cultures were back-diluted to an OD600 = 0.0005 approximately 5 × 10^5 CFU, into fresh MHB-II heated to 37 °C. Samples (250 μL) were taken at time points 0, 1, 3, 5, and 24 h. Samples were spun down at 8000× g for 5 min and washed in 1 mL of NaCl 0.9% before being spun down again and re-suspended in 250 μL NaCl 0.9%. From this, 10-fold dilution series were prepared and 10 μL samples were spot-plated in triplicate onto LB-agar. From the undiluted sample, 100 μL samples were also plated, i.e., giving a detection limit of 10 CFU/mL.

S. aureus ATCC 29213 = assay: microbe, parasite or virus in culture; format: cell-based, Staphylococcus aureus; conditions: Staphylococcus aureus, ATCC29213, read-out: Minimum inhibitory concentration, SA
Protocol: as §1, with “The use of pure MHB-II was compatible with S3(B) and its fatty acid analogues, and therefore was chosen for the MIC determinations. Noticeably, MHB-I with BSA and acetic acid led to precipitation of lipopeptides in the present work.” left out
as §4, §5

SMILES | Minimum inhibitory concentration, EC (E. coli ATCC 25922) [µg/mL] | Minimum inhibitory concentration, KP (K. pneumonia ATCC 13883) [µg/mL] | %H, percent hemolytic activity against red blood cells at 150 μM (human erythrocytes) [%] | %B at peak of elution in analytical HPLC (hydrophobicity) [1] [%] | other results
CCCC(=O)NCC[C@@H]1NC(=O)[C@H](CCN)NC(=O)[C@H](CCCNC(=N)N)NC(=O)[C@H](Cc2ccc3ccccc3c2)NC(=O)[C@H](CCN)NC(=O)[C@H](CC(N)=O)NC(=O)[C@H](CCN)NC(=O)[C@H](Cc2ccc3ccccc3c2)NC(=O)COCCOCCNC1=O [(C4)^5] (cyclo([Dab][2Nal]R[Dab][Dab](Butyryl)[AEEA][2Nal][Dab]N)) | 64 (≈ 50 µM) | >64 | 5 | 62 | %H, percent hemolytic activity against red blood cells at 150 μM (human erythrocytes; listed as (C4)^7): 4%; %B at peak of elution in analytical HPLC (hydrophobicity) ([1]; listed as (C4)^7): 64%
CCCCCC(=O)NCC[C@@H]1NC(=O)[C@H](CCN)NC(=O)[C@H](CCCNC(=N)N)NC(=O)[C@H](Cc2ccc3ccccc3c2)NC(=O)[C@H](CCN)NC(=O)[C@H](CC(N)=O)NC(=O)[C@H](CCN)NC(=O)[C@H](Cc2ccc3ccccc3c2)NC(=O)COCCOCCNC1=O [(C6)^5] (cyclo([Dab][2Nal]R[Dab][Dab](Hexanoyl)[AEEA][2Nal][Dab]N)) | 32 (≈ 24.5 µM) | >64 | 13 | 65 | Minimum inhibitory concentration, AB (A. baumannii ATCC 19606): 64 µg/mL (≈ 48.9 µM); Minimum inhibitory concentration, PA (P. aeruginosa ATCC 27853 [2]): 16 µg/mL (≈ 12.2 µM); %H, percent hemolytic activity against red blood cells at 150 μM (human erythrocytes; listed as (C6)^7): 8%; %B at peak of elution in analytical HPLC (hydrophobicity) ([1]; listed as (C6)^7): 69%
CC[C@H](C)CCCCC(=O)N[C@@H](CCN)C(=O)N[C@H](C(=O)N[C@@H](CCN)C(=O)N[C@H]1CCNC(=O)[C@H]([C@@H](C)O)NC(=O)[C@H](CCN)NC(=O)[C@H](CCN)NC(=O)[C@H](CC(C)C)NC(=O)[C@@H](CC(C)C)NC(=O)[C@H](CCN)NC1=O)[C@@H](C)O [Colistin, reference compound] (X1-[Dab]T[Dab][Dab][Dab][dL]L[Dab][Dab]T; lactam 4-C (inferred); N-terminus assumed) | 0.25 (≈ 0.214 µM) | 0.5 (≈ 0.428 µM) |  |  | log reduction of cell count within first hour of treatment (P. aeruginosa ATCC 27853 [3]; 5 × MIC ((C8)^5 40 μg/mL; colistin 2.5 μg/mL)): 4.5 log; cell count / growth after 24 h (P. aeruginosa ATCC 27853 [3]; 5 × MIC ((C8)^5 40 μg/mL; colistin 2.5 μg/mL), 24 h, detection limit 10 CFU/mL): No growth
N=C(N)NCCC[C@@H]1NC(=O)[C@H](Cc2ccc3ccccc3c2)NC(=O)[C@H](CCN)NC(=O)[C@H](CC(N)=O)NC(=O)[C@H](CCN)NC(=O)[C@H](Cc2ccc3ccccc3c2)NC(=O)COCCOCCNC(=O)[C@H](Cc2ccc(-c3ccccc3)cc2)NC(=O)[C@H](CCN)NC1=O [S3(B)] (cyclo([Dab][2Nal]R[Dab][Bip][AEEA][2Nal][Dab]N)) |  |  | 77 | 71 | HD50 (hemolysis) (human erythrocytes; red cells of human): 69 µM; log reduction of cell count within first hour of treatment (P. aeruginosa ATCC 27853 [3]; 1 × MIC (8 μg/mL)): 2.5 log
CN[C@H](CC(C)C)C(=O)N[C@H]1C(=O)N[C@@H](CC(N)=O)C(=O)N[C@H]2C(=O)N[C@H]3C(=O)N[C@H](C(=O)N[C@H](C(=O)O)c4cc(O)cc(O)c4-c4cc3ccc4O)[C@H](O)c3ccc(c(Cl)c3)Oc3cc2cc(c3O[C@@H]2O[C@H](CO)[C@@H](O)[C@H](O)[C@H]2O[C@H]2C[C@](C)(N)[C@H](O)[C@H](C)O2)Oc2ccc(cc2Cl)[C@H]1O [Vancomycin, reference compound] |  |  |  |  | MIC (S. aureus ATCC 29213): 0.5 µg/mL (≈ 0.345 µM)
